Patent US8563516B2, “Foxp3 peptide vaccine” (OncoTherapy Science, Inc., priority 2007, dated 2013)
Entries after “also recorded” stand apart in the source; their conditions may differ. Ends that are not written are not given here.

Tests used:
BALB/c mice = test: Immunogenicity of epitope peptides in BALB/c mice (IFN-gamma ELISPOT on splenocytes); assay type: in vivo
Procedure: IFA-conjugated peptide or IFA only were injected s.c. into BALB/c mice on day 0 and 7. On day 14, splenocytes of vaccinated mice were harvested and used as responder cells. 1×10^4 RLmale1 cells pulsed corresponding peptide (solid square), or no peptide (open square) were used as stimulator cells for IFN-gamma ELISPOT assay. Vaccination using Foxp3-252_h (A) and Foxp3-252_m (B) were performed into five mice (M1-M5) and IFA without any peptide injection were performed into three mice (N1-N3) as control in each assay.
For priming the peptide-specific CTLs, immunization was given using 100 mcl vaccine mixture, which contains 50 mcl HLA-A24 restricted peptide and 50 mcl IFA per mouse. The vaccine was injected s.c. into the right flank of mice for the first immunization on day 0 and in the left flank for the second on the day 7. On day 14, splenocytes from vaccinated mice were used as the responder cells, and RLmale1 cells pulsed with or without peptides were used as the stimulator cells for IFN-gamma ELISPOT assay.
To evaluate the immunogenicity of Foxp3-9-252 peptide for BALB/c mice, immunization with human Foxp3-9-252 peptide (Foxp3-252_h; KLSAMQAHL)(SEQ ID NO: 17) and mouse Foxp3-9-252 peptide (Foxp3-252_m; KLGAMQAHL) (SEQ ID NO: 89) were performed, respectively. After second injection of peptide, peptide specific CTL activity was determined by IFN-gamma ELISPOT assay (FIG. 5).

4T1 breast cancer cells = test: In vivo antitumor effects of vaccination, 4T1 tumor; parameters: species or system BALB/c mice; details: 4T1 s.c. day 0, vaccination day 3 and 10, compared with control mice, FIG. 6
Procedure: 1×10^5 4T1 breast cancer cell lines were injected into BALB/c mice on day 0. IFA-conjugated with Foxp3-252_h (-open circle-), Foxp3-252_m (-solid square-), no peptide (-solid triangle-) was injected on day 3 and 10. As control of normal tumor growth, non-vaccinated mice (-x-) were also prepared in this assay.
4T1 cells (1×10^5 per mouse) were injected s.c. into the right flank of BALB/c mice on day 0. Vaccination was done on days 3 and 10 using hFoxp3-252 (KLSAMQAHL: SEQ ID NO: 17) or mFoxp3-252 (KLGAMQAHL: SEQ ID NO: […]) IFA-conjugated peptides.
To examine the antitumor effects with peptide vaccination targeted Foxp3, in vivo therapeutic setting was attempted by using 4T1 tumor cells and BALB/c mice. The 4T1 breast cancer cells were injected s.c. into BALB/c mice on day 0, and then vaccination was done on these mice 3 and 10 days after the tumor challenge.

peptide-pulsed T2 cells [1] = test: IFN-gamma ELISPOT on CTLs induced with HLA-A0201 restricted Foxp3 peptides; assay type: cell-based, human; details: FIG. 2A/2B/2C
Source text: (§1) Monocyte-derived dendritic cells (DCs) were used as antigen-presenting cells (APCs) to induce CTL responses against peptides presented on HLA. DCs were generated in vitro as described elsewhere (Horiguchi S. et al. Cancer Res. 59:2950-6). Specifically, peripheral blood mononuclear cells (PBMCs) isolated from normal volunteer (HLA-A*2402 and/or HLA-A*0201) with Ficoll-Plaque (Pharmacia) solution were separated by adherence to plastic tissue culture dish (Becton Dickinson) so as to enrich them for the monocyte fraction. The monocyte-enriched population was cultured in the presence of 1000 U/ml of GM-CSF (R&D System) and 1000 U/ml of IL-4 (R&D System) in AIM-V medium (Invitrogen) containing 2% heat-inactivated autologous serum (AS). After 7 days in the culture, the cytokine-generated DCs were pulsed with 20 mcg/ml of the synthesized peptides in the presence of 3 mcg/ml of beta2-microglobulin for 4 hrs at 20 degrees C. in AIM-V medium. These peptide-pulsed DCs were then inactivated with mitomycin C (MMC) (30 mcg/ml for 30 mins) and mixed at a 1:20 ratio with autologous CD8+ T cells, obtained by positive selection with CD8 Positive Isolation Kit (Dynal). These cultures were set up in 48-well plates (Corning); each well contained 1.5×10^4 peptide-pulsed DCs, 3×10^5 CD8+ T cells and 10 ng/ml of IL-7 (R&D System) in 0.5 ml of AIM-V/2% AS. Three days later, these cultures were supplemented with IL-2 (CHIRON) to a final concentration of 20 IU/ml. On day 7 and 14, the T cells were further restimulated with the peptide-pulsed autologous DCs. The DCs were prepared each time through the same procedure described above. CTL activity was tested against peptide-pulsed A24LCL cells or T2 cells after the 3rd round of peptide stimulation on day 21.
(§2) To examine the specific CTL activity, IFN-gamma ELISPOT assay and IFN-gamma ELISA were performed. Briefly, peptide-pulsed A24-LCL, T2 cell (1×10^4/well) or the cells endogenously expressing Foxp3 and HLA molecule was prepared as a stimulator cells. Cultured CTL lines in 48 wells were used as a responder cells. IFN-gamma ELISPOT assay and IFN-gamma ELISA were performed under manufacture procedure.
Resulting CTLs showing detectable specific CTL activity were shown in FIG. 2A, FIG. 2B and FIG. 2C when performed by IFN-gamma ELISPOT assay.

peptide-pulsed T2 cells [2] = test: IFN-gamma ELISA on expanded CTL lines, HLA-A02 peptides; assay type: cell-based, human; details: expanded cells of positive wells, FIG. 3A-D, 3F
Procedure: (§3) CTLs were expanded in culture using a similar method as reported by Riddell, et al. (Walter et al., N Engl J Med 333(16): 1038-44, 1995; Riddell et al., Nat Med 2(2): 216-23, 1996 February). A total of 5×10^4 CTLs were resuspended in 25 ml of AIM-V/5% AS with 2 kinds of human B-lymphoblastoid cell lines, inactivated with MMC, in the presence of 40 ng/ml of anti-CD3 monoclonal antibody (Pharmingen). One day after initiating the cultures, 120 IU/ml of IL-2 were added to the cultures. The cultures were fed with fresh AIM-V/5% AS containing 30 IU/ml of IL-2 on days 5, 8 and 11.
as §2
(§4) These cells in the positive wells were expanded and performed IFN-gamma ELISA assay.

[3] = system: 293T that transfected both Foxp3 and HLA-A02; test: Specific CTL activity against target cells expressing Foxp3 and HLA-A02; assay type: cell-based, human
Procedure: as §2
The established CTL clone raised against these peptides were examined for their ability to recognize the target cells endogenously expressing Foxp3 and HLA-A*24 or 02. Specific CTL activity against 293T transfected both full length of Foxp3 gene and HLA-A*24 or 02 molecule, which is specific model for the target cells endogenously express Foxp3 and HLA-A*24 or 02, was tested using the CTL lines raised by Foxp3-A02-9-390 (SEQ ID NO: 15) and Foxp3-A02-9-252 (SEQ ID NO: 17) as effector cells. […] Furthermore, these peptides were epitope peptides, which can utilize vaccine targeting Foxp3 expressed T-regs.

[4] = system: peptide-pulsed A24LCL cells or T2 cells; test: In vitro CTL induction by peptide-loaded dendritic cells (summary statements); assay type: cell-based, human; details: for specific CTL activity: against peptide pulsed target cells; for establishment of CTLs: in vitro stimulation of T-cells by DCs loaded with peptide
Source text: Confirmation of CTL inducibility can be accomplished by inducing antigen-presenting cells carrying human MHC antigens (for example, B-lymphocytes, macrophages, and dendritic cells), or more specifically dendritic cells derived from human peripheral blood mononuclear leukocytes, and after stimulation with the peptides, mixing with CD8-positive cells, and then measuring the IFN-gamma produced and released by CTL against the target cells. As the reaction system, transgenic animals that have been produced to express a human HLA antigen (for example, those described in BenMohamed L, Krishnan R, Longmate J, Auge C, Low L, Primus J, Diamond D J, Hum Immunol 61(8): 764-79, 2000 August, Related Articles, Books, Linkout Induction of CTL response by a minimal epitope vaccine in HLA A*0201/DR1 transgenic mice: dependence on HLA class II restricted T(H) response) can be used. For example, the target cells can be radiolabeled with ^51Cr and such, and cytotoxic activity can be calculated from radioactivity released from the target cells. Alternatively, it can be examined by measuring IFN-gamma produced and released by CTL in the presence of antigen-presenting cells that carry immobilized peptides, and visualizing the inhibition zone on the media using anti-IFN-gamma monoclonal antibodies.
as §1, §2

[5] = system: peptide-pulsed A24LCL cells; test: IFN-gamma ELISPOT on CTLs induced with HLA-A2402 restricted Foxp3 peptides; assay type: cell-based, human; details: FIG. 1A/1B
Source text: as §1, §2
CTLs for the peptides derived from Foxp3 protein were generated according to the method described in the “Materials and Methods”, supra.

[6] = system: peptide-pulsed A24LCL cells; test: IFN-gamma ELISA on expanded CTL lines, HLA-A24 peptides; assay type: cell-based, human; details: expanded cells of positive wells, FIG. 3E, 3G
Procedure: as §3, §2, §4

Substance: KLGAMQAHL (peptide vaccine) [SEQ ID NO 88, mouse Foxp3-9-252 peptide]
- mice with peptide specific CTL response (BALB/c mice; IFA-conjugated peptide s.c. day 0 and 7, splenocytes day 14, RLmale1 stimulator cells, FIG. 5): one of five
- induction of epitope specific CTLs in vivo (BALB/c mice; vaccination of BALB/c mice, discussion): could induce epitope specific CTLs in vivo
- tumor growth / antitumor effect (4T1 breast cancer cells; listed as Foxp3-252_m): tumor growth apparently reduced; also recorded: Significant difference of tumor growth suppression
- tumor growth / antitumor effect (4T1 breast cancer cells; listed as mFoxp3-252): obviously anti-tumor effects

Substance: SLHKCFVRV (peptide vaccine) [SEQ ID NO 15]
- IFN-gamma production of CTLs stimulated with peptide, compared with the control (peptide-pulsed T2 cells [1]): potent IFN-gamma production
- IFN-gamma production of CTL lines stimulated with peptide, compared with the control (peptide-pulsed T2 cells [2]): potent IFN-gamma production
- specific CTL activity of CTL lines raised by peptide ([3]; against 293T transfected with both Foxp3 and HLA-A02, FIG. 4A/4B): high specific CTL activity
- specific CTL activity against controls ([3]; controls of FIG. 4A/4B): did not show significant specific CTL activity
- specific CTL activity [4]: significant and specific CTL activity
- establishment of CTLs [4]: CTLs were successfully established

Substance: ALLQDRPHFM (peptide vaccine) [SEQ ID NO 27]
- IFN-gamma production of CTLs stimulated with peptide, compared with the control (peptide-pulsed T2 cells [1]): potent IFN-gamma production
- IFN-gamma production of CTL lines stimulated with peptide, compared with the control (peptide-pulsed T2 cells [2]): potent IFN-gamma production
- specific CTL activity [4]: significant and specific CTL activity
- establishment of CTLs [4]: CTLs were successfully established

Substance: SLNPmPPSQL (chain 1 SLNPMPPSQL; chain 2 SLNPMPPSQL; not fully specified (some residues)) [SEQ ID NO 74]
- IFN-gamma production of CTLs stimulated with peptide, compared with the control [5]: potent IFN-gamma production
- IFN-gamma production of CTL lines stimulated with peptide, compared with the control [6]: potent IFN-gamma production
- specific CTL activity [4]: significant and specific CTL activity
- establishment of CTLs [4]: CTLs were successfully established

Substance: GPLPhLQALL (GPLPHLQALL; not fully specified (residue 5); printed as GPLPhLQALL) [SEQ ID NO 67]
- IFN-gamma production of CTLs stimulated with peptide, compared with the control [5]: potent IFN-gamma production
- IFN-gamma production of CTL lines stimulated with peptide, compared with the control [6]: potent IFN-gamma production
- specific CTL activity [4]: significant and specific CTL activity
- establishment of CTLs [4]: CTLs were successfully established
